The test deals with T1, hKv3.1b (Homo sapiens, UniProt P48547).
T1 construct: expressed in transfected cells
T1 sequence (P48547 1-585 isoform P48547-2): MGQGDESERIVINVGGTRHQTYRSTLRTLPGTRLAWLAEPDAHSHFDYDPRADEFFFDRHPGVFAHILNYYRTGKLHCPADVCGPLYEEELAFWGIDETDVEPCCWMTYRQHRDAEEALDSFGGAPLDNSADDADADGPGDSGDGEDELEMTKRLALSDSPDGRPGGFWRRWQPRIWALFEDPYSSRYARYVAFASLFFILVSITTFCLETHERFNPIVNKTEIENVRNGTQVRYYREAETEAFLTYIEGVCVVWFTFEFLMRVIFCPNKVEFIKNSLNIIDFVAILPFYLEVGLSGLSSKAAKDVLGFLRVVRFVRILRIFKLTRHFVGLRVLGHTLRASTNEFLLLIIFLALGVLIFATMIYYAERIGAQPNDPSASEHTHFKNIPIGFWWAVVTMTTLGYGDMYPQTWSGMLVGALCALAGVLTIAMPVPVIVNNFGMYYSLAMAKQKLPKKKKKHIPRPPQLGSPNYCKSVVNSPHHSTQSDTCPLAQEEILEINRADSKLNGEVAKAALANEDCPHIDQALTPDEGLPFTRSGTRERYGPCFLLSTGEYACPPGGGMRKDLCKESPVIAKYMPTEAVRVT
Kind of test: QPatch automated whole-cell patch-clamp, shift of voltage threshold for channel activation. The class given is cell-based. The note with it: HEK-293 cells stably expressing hKv3.1b. On the procedure: HEK-293 cells stably expressing hKv3.1b was used for the experiments. Cells were cultured in DMEM medium supplemented with 10% Fetal Bovine Serum, 100 ug/mL Geneticidin and 100 u/mL Penicillin/Streptomycin (all from Gibco). Cells were grown to 80-90% confluency at 37° C. and 5% CO2. On the day of the experiment the cells were detached from the tissue culture flasks by Detachin and resuspended in serum free medium containing 25 mM HEPES and transferred to the cell hotel of the QPatch. The cells were used for experiments 0-5 hours after detachment.
Patch-clamp recordings were performed using the automated recording system QPatch-16× (Sophion Bioscience, Denmark). Cells were centrifuged, SFM removed and the cells were resuspended in extracellular buffer containing (in mM): 145 NaCl, 4 KCl, 1 MgCl2, 2 CaCl2, 10 HEPES and 10 glucose (added fresh on the day of experiment); pH 7.4 adjusted with NaOH, 305 mOsm adjusted with sucrose.
Single cell whole-cell recordings were carried out using an intracellular solution containing (in mM): 120 KCl, 32.25/10 KOH/EGTA, 5.374 CaCl2, 1.75 MgCl2, 10 HEPES, 4 Na2ATP (added fresh on the day), pH 7.2 adjusted with KOH, 395 mOsm adjusted with sucrose. Cell membrane potentials were held at −80 mV and currents were evoked by voltage steps (200 ms duration) from −70 mV to +10 mV (in 10 mV increments). Vehicle (0.33% DMSO) or increasing concentration of compound (1) were applied and the voltage protocol was run 3 times (resulting in 3 min cpd incubation time). Five increasing concentrations of compound (1) were applied to each cell.
Leak subtraction protocol was applied at −33% of the sweep amplitude, and serial resistance values were constantly monitored.
Any cell where serial resistance exceeded 25 MOhm, membrane resistance less than 200 MOhm or current size at −10 mV less than 200 pA was eliminated from the subsequent analysis.
Data analysis was performed using Sophion's QPatch assay software in combination with Microsoft Excel™ (Redmond, Wash., USA).
Current voltage relationships were plotted from the peak current at the individual voltage steps normalized to the vehicle addition at 10 mV. The voltage threshold for channel activation was defined as 5% activation of the peak current at 10 mV in presence of vehicle. The activity of the compounds was described as the ability to shift this current voltage relationship to more hyperpolarized potentials and is given as the maximum absolute shift possible at the tested concentrations (0.37, 1.11, 3.33, 10, 30 μM). Concentration response curves were plotted from the threshold shift at the individual concentrations and were fitted excel fit model 205 sigmodal dose-response model (fit=A+((B−A)/1+((C/x)^D)))), where A is the minimum value, B the maximum value, C the EC50 value and D the slope of the curve. The concentration needed to shift the threshold 5 mV was readout from this curve (ECdelta5 mV).

For `Cc1cc(F)ccc1S(=O)(=O)c1ccc(C(=O)NCc2cnccn2)s1` [Compound 19, 5-(4-fluoro-2-methylbenzene-1-sulfonyl)-N-[(pyrazin-2-yl)methyl]thiophene-2-carboxamide], the ECdelta5mV (concentration needed to shift the threshold 5 mV, read from fitted concentration response curve) stood at 3.8 µM. For the setting “maximum absolute shift of activation threshold to more hyperpolarized potentials at tested concentrations (0.37, 1.11, 3.33, 10, 30 μM)”, the Max threshold shift was determined as 14 mV.

The record behind these values is US20220204489A1, “ARYLSULFONYLTHIOPHENECARBOXAMIDES AND ARYLSULFONYLFURANCARBOXAMIDES AS Kv3 POTASSIUM CHANNEL ACTIVATORS” (H. Lundbeck A/S, priority 2019, published 2022).
